In patent publication US10328075B2, “Method of treatment and compounds for use therein” (Baker Heart and Diabetes Institute, priority 2015, dated 2019):
No end group written: not given here.

Columns and labels:
[1] = tested on: myocardial I-R injury in C57BL/6 mice; test: Myocardial I-R in mice: cardiac inflammation after 48 h reperfusion; format: in vivo, mouse; settings: for Effect on LV injury score / cell infiltration (H&E) / Effect on LV macrophage (CD68+) signal / Reduction of LV neutrophil content (Ly-6B.2) / Effect on LV neutrophil (Ly-6B.2) signal (in words): 60 min ischaemia, 48 h reperfusion
Method: (§1) Male C57BL/6 mice were breed and housed in the AMREP Animal Centre and maintained under a 12 h light/dark cycle. After anaesthesia (i.p., ketamine 80 mg/kg, xylazine 20 mg/kg and atropine 1.2 mg/kg), mice were randomly assigned to 24 h, 48 h and 7 days reperfusion groups and underwent reversible left arterial descending (LAD) ligation as described (Gao XM, 2011; JMCC, 50; Gao XM, 2000, JMCC). Following sedation, mice were intubated and ventilated (Harvard apparatus, MA, USA) with room air mixed with oxygen (tidal volume 0.25 mL, 150 breath/min), and placed on a heating pad. A left thoractomy will be made via the ˜third intercostal space, where the beating heart was located.
(§2) The LAD was reversibly ligated using 7-0 silk suture with a slipknot enclosing two releasing rings. Regional ischaemia was confirmed by pale colour of the ligated area. Air was then evacuated from the chest, the cavity was closed and normal respiration was restored. After 40-60 min of ischaemia, blood flow through the left coronary artery was re-established by releasing the slipknot. Sham-operated mice underwent identical surgical procedures except the coronary arteries were not ligated. Three cohorts of mice were scheduled. Cohort 1 was subjected to 40 min ischaemic-24 h reperfusion for the assessment of cardiac necrosis. Cohort 2 was subjected to 60 min occlusion with 48 h reperfusion for the quantification of cardiac and systemic inflammation. The last cohort was subjected to 7 d reperfusion and early cardiac fibrosis was assessed.
(§3) Treatment with study drugs: Animals were randomly assigned to different groups and all treatments were administrated 5 min prior to reperfusion of the LAD. The peptide Ac2-26 (1 mg kg^−1) (Chemieliva, Chongqing, China) and its vehicle (10% dimethyl sulfoxide (DMSO) in saline) were intravenously (i.v.) injected via the tail vein. […] Mice then received drug or vehicle injections daily until the experimental endpoint. The two different vehicles groups reflect different study drug solubility and administration routes.
Assessment of cardiac inflammation: LV tissue embedded in OCT compound following 60 min ischaemia and 48 h reperfusion were sectioned at 6 μm for immunofluorescent analysis. Sections were pre-incubated with 4% paraformaidehyde for 20 min and 10% normal goat serum for a further 30 min. Sections were then incubated at room temperature (RT) with either CD68+ primary antibody or Ly-6B.2 primary antibody (1:200, ABD Serotec, Raleigh, USA) for 1 h, followed 30 min incubation with the Alexa Fluor 546 secondary antibody (1:200, Invitrogen, Carlsbad, USA), to detect cardiac macrophage and neutrophil infiltration, respectively. Finally, sections were incubated with 0.001% Hoechst 33342 (Invitrogen, Melbourne, Australia) for 30 min, to elicit nuclear staining. Single images were photographed using a Nikon A1R confocal microscope (Nikon Instruments Inc., NY, USA) under 20× magnification, and 9×9 single images were then automatically stitched together using NIS-Elements AR software (version 4.10 for Windows, Nikon Instruments Inc., NY, USA) to form each whole LV section. The images for infarct area were captured under 40× magnification, and the stitched images were then analysed using Fiji software (version 1.48c for Max OS X, National Institutes of Health, USA). The threshold was set for each image, to enable optimal sensing of red fluorescence intensity above threshold, and the software then automatically quantified these red fluorescent signals.
Assessment of cardiac histology and fibrosis: LV hearts fixed in NBF after 40 min ischaema and 7 d reperfusion were embedded in paraffin by the Alfred Pathology Service (Melbourne, Australia) and sectioned at 4 μm with a Leica 2135 microtome (Leica Microsystems, Wetzlar, Germany). Sections were stained with haematoxylin and eosin (H&E) for assessment of myocardial morphology, or picrosirius red (0.1%, Fluka, Bucks, Switzerland; pH2) for cardiac collagen deposition. […]

[2] = tested on: myocardial I-R injury in C57BL/6 mice; test: Myocardial I-R in mice: cardiac fibrosis, apoptosis and remodelling after 7 days reperfusion; format: in vivo, mouse; settings: for Effect on cardiac remodeling 7 days post I-R: 50 mg/kg i.p.
Method: as §1, §2, §3
Assessment of cardiac histology and fibrosis: LV hearts fixed in NBF after 40 min ischaema and 7 d reperfusion were embedded in paraffin by the Alfred Pathology Service (Melbourne, Australia) and sectioned at 4 μm with a Leica 2135 microtome (Leica Microsystems, Wetzlar, Germany). Sections were stained with haematoxylin and eosin (H&E) for assessment of myocardial morphology, or picrosirius red (0.1%, Fluka, Bucks, Switzerland; pH2) for cardiac collagen deposition. Images were taken at 1.25× to capture the whole LV. To examine the local infarct area, images were collected at 20× using the microscope (Olympus BX61, Olympus Inc., Ontario, Canada) and QCapture Pro software (version 5.1 for Windows, Media Cybernetic Inc., Maryland, USA). H&E images were scored blindly in random order on a scale of 1 to 5, based on intensity of blue staining of nuclei (1=least, 5=most, classified by independent observer). The area of picrosirius red staining (% LV area) was quantitatively measured using Image-Pro Plus software (Media Cybernetic Inc., Maryland, USA) for sets of LV slides from 48 h reperfusion and 7 d reperfusion study.
Animal Surgery: Adult C57BL/6 mice were randomly assigned to myocardial ischemia-reperfusion (I-R) injury or sham in vivo. Anesthetized mice (ketamine 80 mg/kg, xylazine 20 mg/kg and atropine 1.2 mg/kg, KXA, i.p.) underwent reversible left arterial descending (LAD) ligation as described (Gao et al. 2000 & Gao et al. 2011). Following sedation, mice were intubated and ventilated (Harvard apparatus, MA, USA) with room air mixed with oxygen (tidal volume 0.25 mL, 150 breaths/min), and placed on a heating pad. A left thoractomy was be made around the third intercostal space, where the beating heart was located. The LAD was reversibly ligated using 7-0 silk suture with a slipknot enclosing two releasing rings. Regional ischemia was confirmed by pale color of the ligated area. […]

Row | Molecule | Effect on cardiac inflammation 48 h post I-R ([1]; 50 mg/kg i.p.) | Effect on LV injury score / cell infiltration (H&E) [1] | Effect on LV macrophage (CD68+) signal [1] | Reduction of LV neutrophil content (Ly-6B.2) [1] | Effect on LV neutrophil (Ly-6B.2) signal (in words) ([1]; 50 mg/kg i.p.) | Cardioprotection: Inflammation ([1]; Table 9) | Effect on cardiac remodeling 7 days post I-R [2] | Effect on I-R-induced cardiac fibrosis (picrosirius red) ([2]; 7 days reperfusion) | Effect on LV apoptosis in the infarct area ([2]; 7 days reperfusion) | Cardioprotection: Adverse remodelling ([2]; Table 9) | Effect on LV neutrophil (Ly-6B.2) signal (in words) ([1]; 50 mg/kg i.p., listed as Cmpd43, 50 mg/kg)
1 | COc1cccc(Cc2cc(C)nn(C(C)C(=O)Nc3ccc(Br)cc3)c2=O)c1 (stereo not shown) [BIDI-001, N-(4-bromophenyl)-2-[5-(3-methoxybenzyl)-3-methyl-6-oxo-6H-pyridazin-1-yl]-propionamide] | reduces cardiac inflammation | not | tended to be reduced | ~50% | significantly attenuated the Ly-6B.2 neutrophil signal by almost half | ↓↓ | reduces cardiac remodeling | absent | significantly attenuated | ↓↓ | 
2 | CC(C)C1C(NC(=O)Nc2ccc(Cl)cc2)C(=O)N(c2ccccc2)N1C (stereo not shown) [BIDI-002] |  | significantly attenuated | tended to be reduced |  |  |  | lacked these cardioprotective actions | persist |  |  | absent
3 | Ac2-26: Annexin-A1 N-terminal peptide, peptide ANX-A1 mimetic (Ac-AMVSEFLKQAWFIENEEQEYVQTVK; UniProt P04083 2-26, looked up, fragment) |  | significantly inhibited | non-significant trend | approximately 35% |  |  |  | tended to be inhibited |  |  | 
